Results from the supplement of paper PMC11451515.

Tested on: SEM cells
Experiment: cell viability relative to DMSO control; higher = less cytotoxic
Settings: 48 h
Method in brief: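 NOMO1, SEM and P12-Ichikawa leukemia cells spent at least four passages adapting to each medium before use. They were seeded at 500 cells/well (NOMO1, SEM) or 1000 cells/well (P12-Ichikawa) in 5 μl in 1536-well plates and pin-dosed with library compounds in DMSO at 11 threefold steps from 47 μM down to 0.79 nM. After 48 h at 37°C, CellTiter-Glo One luminescence was read. Viability is reported as a percentage of the DMSO wells on each plate, with cell-free wells as background.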

[1] = HPLM + 10% dialyzed FBS, 0.000781 µM
[2] = HPLM + 10% dialyzed FBS, 0.00234 µM
[3] = HPLM + 10% dialyzed FBS, 0.00702 µM
[4] = HPLM + 10% dialyzed FBS, 0.0211 µM
[5] = HPLM + 10% dialyzed FBS, 0.0632 µM
[6] = HPLM + 10% dialyzed FBS, 0.19 µM
[7] = HPLM + 10% dialyzed FBS, 0.569 µM
[8] = HPLM + 10% dialyzed FBS, 1.71 µM
[9] = HPLM + 10% dialyzed FBS, 5.12 µM
[10] = HPLM + 10% dialyzed FBS, 15.4 µM
[11] = HPLM + 10% dialyzed FBS, 46.1 µM
[12] = RPMI 5 mM glucose + 10% FBS, 0.000781 µM
[13] = RPMI 5 mM glucose + 10% FBS, 0.00234 µM
[14] = RPMI 5 mM glucose + 10% FBS, 0.00702 µM
[15] = RPMI 5 mM glucose + 10% FBS, 0.0211 µM
[16] = RPMI 5 mM glucose + 10% FBS, 0.0632 µM
[17] = RPMI 5 mM glucose + 10% FBS, 0.19 µM
[18] = RPMI 5 mM glucose + 10% FBS, 0.569 µM
[19] = RPMI 5 mM glucose + 10% FBS, 1.71 µM
[20] = RPMI 5 mM glucose + 10% FBS, 5.12 µM
[21] = RPMI 5 mM glucose + 10% FBS, 15.4 µM
[22] = RPMI 5 mM glucose + 10% FBS, 46.1 µM
[23] = RPMI 5 mM glucose + 10% dialyzed FBS, 0.000781 µM
[24] = RPMI 5 mM glucose + 10% dialyzed FBS, 0.00234 µM
[25] = RPMI 5 mM glucose + 10% dialyzed FBS, 0.00702 µM
[26] = RPMI 5 mM glucose + 10% dialyzed FBS, 0.0211 µM
[27] = RPMI 5 mM glucose + 10% dialyzed FBS, 0.0632 µM
[28] = RPMI 5 mM glucose + 10% dialyzed FBS, 0.19 µM
[29] = RPMI 5 mM glucose + 10% dialyzed FBS, 0.569 µM
[30] = RPMI 5 mM glucose + 10% dialyzed FBS, 1.71 µM
[31] = RPMI 5 mM glucose + 10% dialyzed FBS, 5.12 µM
[32] = RPMI 5 mM glucose + 10% dialyzed FBS, 15.4 µM
[33] = RPMI 5 mM glucose + 10% dialyzed FBS, 46.1 µM

Row | Structure (SMILES) | cell viability [1] [%] | cell viability [2] [%] | cell viability [3] [%] | cell viability [4] [%] | cell viability [5] [%] | cell viability [6] [%] | cell viability [7] [%] | cell viability [8] [%] | cell viability [9] [%] | cell viability [10] [%] | cell viability [11] [%] | cell viability [12] [%] | cell viability [13] [%] | cell viability [14] [%] | cell viability [15] [%] | cell viability [16] [%] | cell viability [17] [%] | cell viability [18] [%] | cell viability [19] [%] | cell viability [20] [%] | cell viability [21] [%] | cell viability [22] [%] | cell viability [23] [%] | cell viability [24] [%] | cell viability [25] [%] | cell viability [26] [%] | cell viability [27] [%] | cell viability [28] [%] | cell viability [29] [%] | cell viability [30] [%] | cell viability [31] [%] | cell viability [32] [%] | cell viability [33] [%]
1 | CCC(C1CCC(C)C(O1)C(C)C(O)C(C)C(=O)C(CC)C2OC\3(O[C@]4(CC[C@@](C)(O4)C5CC[C@@](O)(CC)C(C)O5)C(O)\C=C3)C(C)CC2C)C([O-])=O (some centres undefined) | 105 | 13.3 | 124 | 103 | 113 | 118 | 116 | 77.4 | 29.6 | 22.9 | 21.3 | 107 | 101 | 110 | 107 | 110 | 109 | 98.3 | 55 | 25.5 | 14.3 | 10.4 | 58.1 | 15 | 97.9 | 97.9 | 113 | 97.8 | 89.1 | 50.2 | 26.9 | 22.5 | 14.3
2 | CC(C)[N+]1(C)C2CCC1CC(OC(=O)C(CO)c1ccccc1)C2.O.[Br-] (centres undefined) | 96 | 97.8 | 107 | 91.3 | 98.7 | 108 | 93.7 | 113 | 91.4 | 69.4 | 64.5 | 111 | 103 | 106 | 96.6 | 125 | 119 | 105 | 108 | 85.9 | 40.7 | 42.3 | 93.2 | 98.2 | 109 | 109 | 120 | 116 | 123 | 130 | 90.2 | 40.3 | 41.9
3 | CC(C)Cn1cnc2c(N)nc3ccccc3c21 | 98.8 | 107 | 106 | 105 | 110 | 110 | 104 | 93.5 | 102 | 91.8 | 77.1 | 104 | 124 | 103 | 115 | 104 | 111 | 104 | 94.1 | 111 | 105 | 72.1 | 105 | 118 | 117 | 116 | 108 | 105 | 120 | 113 | 93.8 | 90.6 | 92
4 | COc1cc2ncnc(Nc3cccc(Cl)c3)c2cc1OC | 99.7 | 112 | 93.1 | 105 | 77.8 | 62.7 | 53.5 | 30.7 | 32.4 | 31.3 | 4.45 | 121 | 118 | 113 | 119 | 76.8 | 50.2 | 50.7 | 19.1 | 7.71 | 6.3 | 4.71 | 98.5 | 111 | 93 | 102 | 77.7 | 58.8 | 59.1 | 22.8 | 19.3 | 9.12 | 3.77
5 | COc1cc(Cl)cn2c(-c3cccc(NC4CNC4)n3)cnc12 | 114 | 117 | 131 | 121 | 133 | 116 | 125 | 90.8 | 128 | 105 | 96.8 | – | – | – | – | – | – | – | – | – | – | – | – | – | – | – | – | – | – | – | – | – | –
6 | CCOC(=O)O[C@]1(C(=O)OCCl)CC[C@H]2[C@@H]3CCC4=CC(=O)C=C[C@]4(C)[C@H]3[C@@H](O)C[C@@]21C | 84.2 | 92.5 | 93.3 | 102 | 101 | 99.3 | 95.6 | 96 | 102 | 88.7 | 100 | 82.9 | 85.4 | 87.9 | 84.6 | 92.7 | 87.3 | 85.1 | 109 | 107 | 96.1 | 96.6 | 83.5 | 87.4 | 93.6 | 85.7 | 85.4 | 94.8 | 86.1 | 89.3 | 96.4 | 99.2 | 92
7 | O=C1N\C=N/C2=C1C=N[NH]2 | 74.3 | 77.4 | 74 | 95.1 | 70.6 | 90.7 | 77.2 | 22.6 | 93.8 | 94.5 | 41.9 | 70.2 | 79 | 69.4 | 90.4 | 62.5 | 91.7 | 81.2 | 20.2 | 81.6 | 88.8 | 71.8 | 74.8 | 86.2 | 81.4 | 104 | 79.1 | 99.2 | 82.1 | 32.9 | 96.1 | 86.7 | 47.4
8 | COc1ccc2[nH]cc(CCNC(C)=O)c2c1 | 91 | 110 | 113 | 116 | 127 | 114 | 114 | 101 | 103 | 117 | 106 | 112 | 123 | 124 | 124 | 117 | 114 | 124 | 102 | 110 | 123 | 119 | 121 | 131 | 114 | 144 | 125 | 113 | 120 | 104 | 100 | 124 | 113
9 | COc1cc(OC)c(C(=O)CCCN2CCCC2)c(OC)c1 | 119 | 117 | 127 | 114 | 115 | 108 | 115 | 113 | 93 | 107 | 109 | 122 | 143 | 118 | 135 | 126 | 118 | 127 | 112 | 109 | 105 | 123 | – | – | – | – | – | – | – | – | – | – | –
